Measurements reported in PubChem BioAssay (NCI).
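Where inhibition never reached the appropriate level, the endpoint shown equals the highest concentration tested. Otherwise, values were interpolated linearly from a five-concentration, 48-hour dose response in 96-well plates. TGI is the concentration that stops growth completely.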

Experiments:
Experiment in all cases: NCI tumour cell line growth inhibition, 48 h
[1] = test system: CCRF-CEM leukemia
[2] = test system: UO-31 renal
[3] = test system: SK-OV-3 ovarian
[4] = test system: HCT-15 colon
[5] = test system: OVCAR-4 ovarian
[6] = test system: SF-268 CNS
[7] = test system: NCI/ADR-RES ovarian
[8] = test system: OVCAR-8 ovarian
[9] = test system: RPMI-8226 leukemia
[10] = test system: MDA-MB-435
[11] = test system: SK-MEL-2 melanoma
[12] = test system: NCI-H23 lung
[13] = test system: EKVX NSCLC
[14] = test system: U251 CNS
[15] = test system: COLO 205 colon
[16] = test system: SF-295 CNS
[17] = test system: K-562 leukemia
[18] = test system: UACC-257 melanoma
[19] = test system: HCC-2998 colon
[20] = test system: HOP-92 NSCLC
[21] = test system: ACHN renal
[22] = test system: IGROV1 ovarian
[23] = test system: 786-0 renal
[24] = test system: MCF7 breast
[25] = test system: OVCAR-3 ovarian
[26] = test system: KM12 colon
[27] = test system: T-47D breast
[28] = test system: SNB-19 CNS
[29] = test system: A549 NSCLC
[30] = test system: NCI-H460 lung
[31] = test system: MDA-MB-231 breast
[32] = test system: DU-145 prostate
[33] = test system: LOX IMVI melanoma
[34] = test system: UACC-62 melanoma
[35] = test system: SNB-75 CNS
[36] = test system: SN12C renal
[37] = test system: HT29 colon
[38] = test system: PC-3 prostate
[39] = test system: M14 melanoma
[40] = test system: SK-MEL-28 melanoma
[41] = test system: SW-620 colon
[42] = test system: SF-539 CNS
[43] = test system: BT-549 breast
[44] = test system: HL-60(TB) leukemia
[45] = test system: NCI-H522 lung
[46] = test system: HCT-116 colon
[47] = test system: NCI-H226 lung
[48] = test system: OVCAR-5 ovarian
[49] = test system: MOLT-4 leukemia
[50] = test system: HOP-62 NSCLC
[51] = test system: TK-10 renal
[52] = test system: SK-MEL-5 melanoma
[53] = test system: SR leukemia
[54] = test system: HS 578T breast
[55] = test system: CAKI-1 renal
[56] = test system: MDA-N
[57] = test system: A498 renal
[58] = test system: RXF 393 renal

Measured: TGI

O=C1COc2cc(N3CCN(c4cccc(C(F)(F)F)c4)CC3)ccc2N1
not listed: [57] | [58]
> 100 µM: all other assays above

CC(C)(C)OC(=O)NC12C3C4C1C1C2C3C41NC(=O)OC(C)(C)C (stereo not given)
39.3 µM: [26]
53.9 µM: [44]
95.9 µM: [24]
92.1 µM: [31]
40.4 µM: [49]
61.7 µM: [1]
84.4 µM: [58]
93.9 µM: [42]
not listed: [3] | [9] | [35] | [47]
> 100 µM: all other assays above
